Assay results reported in US8598173B2, “1-[(6,7-substituted alkoxyquinoxalinyl)aminocarbonyl]-4-(hetero)arylpiperazine derivatives for treating tumors” (Korea Research Institute of Chemical Technology, priority 2004, dated 2013).
Where two headings read alike, the source gives them in different places.

Legend:
UMRC2 (kidney) = experiment: Cell growth inhibition assay (SRB), UMRC2; assay type: cell-based, human; settings: Homo sapiens, SRB method, 96 hours incubation
Procedure: (§1) OVCAR-3, MCF-7, PC3, HepG2, A549, HT-29 and MKN-45 were grown in RPMI1640 medium (Invitrogen, Carlsbad, Calif.) supplemented with 10% fetal bovine serum (‘FBS’), 1 mM sodium pyruvate, 10 mM HEPES and 100 U/ml penicillin and […] streptomycin (‘P/S’). MDA-MB-231, HCT116, UMRC2, Caki-1, PANC-1 and HEK293 cells were maintained in Dulbecco's modified Eagle's medium (‘DMEM’, Invitrogen) supplemented with 10% FBS, P/S, 10 mM HEPES and 2 mM L-glutamine. HUVEC was maintained in M199 supplemented with basic fibroblast growth factor (‘bFGF’) […] and FBS 20%. All cells were incubated at 37° C. under humidified 5% CO2.
(§2) The growth inhibition of the substituted quinoxalin-piperazine compounds against a variety of human tumor cells was evaluated. The relative importance of particular substituent groups on the compounds was also studied. The substituted piperazine derivative compounds, prepared as described above, were tested, along with DMSO as a control.
(§3) The growth inhibition assay of various compounds against human tumor cell lines was performed using the Sulforhodamine B (‘SRB’) method (Skehan et al., J. National Cancer Institute, 1990, 82, 1107-1112). […] Triplicate wells were used for each treatment. The cells were incubated with the various compounds for 96 hours at 37° C. in a humidified 5% CO2 atmosphere. After 96-hour incubation, cells were fixed with 10% trichloroacetic acid (‘TCA’), incubated for 1 hour at 4° C., and washed 3 times with tap water. Subsequently cells were stained with 0.4% sulforhodamine B in 1% acetic acid for 30 minutes, washed 4 times with 1% acetic acid, and air-dried again. After 5 minutes agitation in 10 mM Tris solution, the absorbance of each well was measured at 530 nm using Benchmark Plus Microplate reader (Bio-Rad Laboratories, Hercules, Calif.).
(§4) To translate the OD530 values into the number of live cells in each well, the OD530 values were compared to those on standard OD530-versus-cell number curves generated for each cell line. The percent survival was calculated using the formula: % Survival=live cell number[test]/live cell number[control]×100
(§5) The IC50 values were calculated by non-linear regression analysis.

HCT116 (colon) = experiment: Cell growth inhibition assay (SRB), HCT116; assay type: cell-based; settings: Homo sapiens, HCT-116; SRB method, 96 hours incubation, HCT116 (colon); read-out: IC50, HCT116
Procedure: as §1, §2, §3, §4, §5

HepG2 (liver) = experiment: Cell growth inhibition assay (SRB), HepG2; assay type: cell-based; settings: Homo sapiens; SRB method, 96 hours incubation, HepG2 (liver); read-out: IC50, HepG2
Procedure: as §1, §2, §3, §4, §5

HT-29 (colon) = experiment: Cell growth inhibition assay (SRB), HT-29; assay type: cell-based; settings: Homo sapiens, SRB method, 96 hours incubation
Procedure: as §1, §2, §3, §4, §5

[1] = system: Huvec (human umbilical vein endothelial cells); experiment: Cell growth inhibition assay (SRB), Huvec; assay type: cell-based; settings: SRB method, 96 hours incubation
Procedure: as §1, §2, §3, §4, §5

[2] = system: MCF-7 (breast, hormone-dependent); experiment: Cell growth inhibition assay (SRB), MCF-7; assay type: cell-based; settings: Homo sapiens, MCF7; SRB method, 96 hours incubation, MCF-7 (breast, hormone-dependent); read-out: IC50, MCF-7
Procedure: as §1, §2, §3, §4, §5

[3] = system: HEK293 (human embryonic kidney); experiment: Cell growth inhibition assay (SRB), HEK293; assay type: cell-based; settings: SRB method, 96 hours incubation
Procedure: as §1, §2, §3, §4, §5

PC3 (prostate) = experiment: Cell growth inhibition assay (SRB), PC3; assay type: cell-based; settings: Homo sapiens; SRB method, 96 hours incubation, PC3 (prostate); read-out: IC50, PC3
Procedure: as §1, §2, §3, §4, §5

SK-OV-3 (ovary) = experiment: Cell growth inhibition assay (SRB), SK-OV-3; assay type: cell-based; settings: Homo sapiens, SRB method, 96 hours incubation
Procedure: as §1, §2, §3, §4, §5

PANC-1 (pancreas) = experiment: Cell growth inhibition assay (SRB), PANC-1; assay type: cell-based, human; settings: Homo sapiens, SRB method, 96 hours incubation
Procedure: as §1, §2, §3, §4, §5

A549 (lung) = experiment: Cell growth inhibition assay (SRB), A549; assay type: cell-based; settings: Homo sapiens, SRB method, 96 hours incubation
Procedure: as §1, §2, §3, §4, §5

MDA-MB-231 (breast) = experiment: Cell growth inhibition assay (SRB), MDA-MB-231; assay type: cell-based, human; settings: Homo sapiens, SRB method, 96 hours incubation
Procedure: as §1, §2, §3, §4, §5

MKN-45 (stomach) = experiment: Cell growth inhibition assay (SRB), MKN-45; assay type: cell-based; settings: Homo sapiens; SRB method, 96 hours incubation, MKN-45 (stomach); read-out: IC50, MKN-45
Procedure: as §1, §2, §3, §4, §5

OVCAR-3 (ovary) = experiment: Cell growth inhibition assay (SRB), OVCAR-3; assay type: cell-based; settings: Homo sapiens; SRB method, 96 hours incubation, OVCAR-3 (ovary); read-out: IC50, OVCAR-3
Procedure: as §1, §2, §3, §4, §5

Caki-1 (kidney) = experiment: Cell growth inhibition assay (SRB), Caki-1; assay type: cell-based; settings: Homo sapiens; SRB method, 96 hours incubation, Caki-1 (kidney); read-out: IC50, Caki-1
Procedure: as §1, §2, §3, §4, §5

[4] = UMRC2 (kidney), read-out: IC50, UMRC2
[5] = HT-29 (colon), read-out: IC50, HT-29
[6] = HEK293 (human embryonic kidney), read-out: IC50, HEK293
[7] = SK-OV-3 (ovary), read-out: IC50, SK-OV-3
[8] = PANC-1 (pancreas), read-out: IC50, PANC-1
[9] = A549 (lung), read-out: IC50, A549
[10] = MDA-MB-231 (breast), read-out: IC50, MDA-MB-231

IC50 (HCT116 (colon)) | IC50 (HepG2 (liver)) | IC50 (HT-29 (colon); [5]) | IC50 [2] | IC50 (PC3 (prostate)) | IC50 (SK-OV-3 (ovary); [7]) | IC50 (PANC-1 (pancreas); [8]) | IC50 (A549 (lung); [9]) | IC50 (MDA-MB-231 (breast); [10]) | IC50 (MKN-45 (stomach)) | IC50 (OVCAR-3 (ovary)) | Structure (SMILES) | IC50 (UMRC2 (kidney); [4]) | IC50 ([1]; read-out: IC50, Huvec) | IC50 [3, 6] | IC50 (Caki-1 (kidney)) | other results
450 nM | 410 nM | 0.46 µM | 450 nM | 620 nM | 0.5 µM | 0.17 µM | 0.59 µM | 0.13 µM | 430 nM | 310 nM | COc1nc2cc(Cl)ccc2nc1NC(=O)N1CCN(c2cc(C)cc(C)c2)CC1 [Compound 115, 1-[(6-Chloro-3-methoxyquinoxalin-2-yl)aminocarbonyl]-4-(3,5-dimethylphenyl)piperazine] | 0.11 µM | 0.52 µM | 0.5 µM | 310 nM | 
 |  |  |  |  |  |  |  |  |  |  | COc1cccc(N2CCN(C(=O)Nc3nc4cc(C)ccc4nc3OC)CC2)c1 [Compound 45, 1-[(2-Methoxy-6-methylquinoxalin-3-yl)aminocarbonyl]-4-(3-methoxyphenyl)piperazine] |  |  |  |  | IC50 (UMRC2 (kidney); UMRC2, read-out: Inhibition of cell growth (IC50, μM) by quinoxaline-piperazine compounds against human cancer cell lines: UMRC2): 0.45 µM; IC50 (HT-29 (colon); HT-29, HT29, read-out: Inhibition of cell growth (IC50, μM) by quinoxaline-piperazine compounds against human cancer cell lines: HT29): 0.05 µM; IC50 ([1]; read-out: Inhibition of cell growth (IC50, μM) by quinoxaline-piperazine compounds against human cancer cell lines: Huvec): 0.5 µM; IC50 ([3]; Homo sapiens, Hek293, read-out: Inhibition of cell growth (IC50, μM) by quinoxaline-piperazine compounds against human cancer cell lines: Hek293): 0.5 µM; IC50 (SK-OV-3 (ovary); SK-OV-3, read-out: Inhibition of cell growth (IC50, μM) by quinoxaline-piperazine compounds against human cancer cell lines: SK-OV-3): 1 µM; IC50 (PANC-1 (pancreas); PANC-1, read-out: Inhibition of cell growth (IC50, μM) by quinoxaline-piperazine compounds against human cancer cell lines: PANC-1): 1.31 µM; IC50 (A549 (lung); A549, read-out: Inhibition of cell growth (IC50, μM) by quinoxaline-piperazine compounds against human cancer cell lines: A549): 0.25 µM; IC50 (MDA-MB-231 (breast); MDA-MB-231, read-out: Inhibition of cell growth (IC50, μM) by quinoxaline-piperazine compounds against human cancer cell lines: MDA-MB-231): 0.27 µM
400 nM | 480 nM | 0.89 µM | 360 nM | 700 nM | 0.5 µM | 0.56 µM | 0.42 µM | 0.41 µM | 250 nM | 290 nM | COc1nc2cc(F)ccc2nc1NC(=O)N1CCN(c2cc(C)cc(C)c2)CC1 [Compound 94, 1-[(6-Fluoro-3-methoxyquinoxalin-2-yl)aminocarbonyl]-4-(3,5-dimethylphenyl)piperazine] | 0.32 µM | 0.16 µM | 0.57 µM | 330 nM | 
380 nM | 560 nM | 0.78 µM | 210 nM | 580 nM | 0.5 µM | 0.47 µM | 2.5 µM | 0.41 µM | 270 nM | 290 nM | COc1ccc2nc(NC(=O)N3CCN(c4cc(C)cc(C)c4)CC3)c(OC)nc2c1 [Compound 157, 1-[(3,6-Dimethoxyquinoxalin-2-yl)aminocarbonyl]-4-(3,5-dimethylphenyl)piperazine] | 0.27 µM | 0.15 µM | 0.53 µM | 300 nM | 
200 nM | 190 nM | 0.24 µM | 210 nM | 250 nM | 0.1 µM | 0.28 µM | 0.21 µM | 0.045 µM | 180 nM | 140 nM | COc1nc2cc(C)ccc2nc1NC(=O)N1CCN(c2cc(C)cc(C)c2)CC1 [Compound 136, 1-[(3-Methoxy-6-methylquinoxalin-2-yl)aminocarbonyl]-4-(3,5-dimethylphenyl)piperazine] | 0.057 µM | 0.15 µM | 0.24 µM | 130 nM | 
